Results: patent publication US6469037B2, “Prophylactic or therapeutic drug for renal diseases” (Takeda Chemical Industries, Ltd., priority 1993, dated 2002)

Columns and labels:
[1] = system: rats with subtotally (5/6) nephrectomy; assay: Antiproteinuric action in rats with subtotally (5/6) nephrectomy (focal glomerulosclerosis model); type: in vivo
Text: Antiproteinuric action in rats with subtotally (5/6) nephrectomy (focal glomerulorsclerosis model; Meyer, T. W. and Renake, H. G.: Am. J. Physiol. 254, F856 (1988) or Yoshioka, T., Shiraga, H., Yoshida, Y., Fogo. A., Glick, A. D.: J. Clin. Invest. 82, 1614 (1988)) Compound 1: (±)-1-(cyclohexyloxycarbonyloxy)ethyl 2-ethoxy-1-[[2′-(1H-tetrazole-5-yl)biphenyl-4-yl]methyl]-1H-benzmidazole-7-carboxylate Method: Five-week-old male rats were anesthetized by intraperitoneal injection of pentobarbital sodium and ⅔ of the right kidney was removed. One week later, the entire left kidney was removed under similar anesthesia. After two-week breeding, 24-hour urine was collected and the total protein content and albumin content in the urine were determined by the use of A/G-B test (Wako Pure Chemistry Co., Ltd.). On the basis of urinary protein and blood pressure (BP), the rats were divided into two groups (vehicle-treated rats and rats treated with 1 mg/kg/day, p.o. of compound 1). Rats undergoing nephrectomy of the left kidney alone were also used as sham operated rats. Compound 1 was suspended in gum-arabic and the suspension was orally administered once a day for eight weeks. At the 2nd, 4th, 6th and 8th week of the treatment, 24-hour urine was collected. Results: Table 1 summarizes the results. Urinary total protein and albumin began to markedly increase in vehicle-treated rats two weeks after surgery. […] Since compound 1 suppresses aggravation of renal impairment, its efficacy in glomerulonephritis or diabetic nephropathy is expected.

[2] = system: Wistar fatty rats; assay: Antiproteinuric action in rats with non-insulin-dependent diabetes (Wistar fatty rats); type: in vivo
Text: Antiproteinuric action in rats with non-insulin-dependent (NIDD) diabetes (Wistar fatty rats) (Ikeda, H., Shino, A., Matsuo, T., Iwatsuka, H., and Suzuoki, Z.: Diabetes, 30, 1045 (1981) or Kava, R. A., West, D. B., Lukasik, V. A., and Greenwood, M. R. C: Diabetes, 38,159 (1989) Compound 1: (±)-1-(cyclohexyloxycarbonyloxy)ethyl 2-ethoxy-1-[[2′-(1H-tetrazole-5-yl)biphenyl-4-yl]methyl]-1H-benzimidazole-7-carboxylate Method: On the basis of blood glucose level and urinary protein content, 11-week-old Wistar fatty rats were divided into two groups (vehicle-treated rats and rats treated with 1 mg/kg/day, p.o. of compound 1). Non-diabetic control rats (lean rats) were also used. Compound 1 was suspended in gum-arabic and the suspension was orally administered once a day for ten weeks. At the 2nd, 4th, 6th, 8th and 10th week of the treatment, 24 hour urine was collected. The urine was centrifuged at 3,000 rpm and a portion of the supernatant was desalted on a column (Pharmacia PD10). Urinary total protein content and albumin content were determined by Lowry and ELISA methods, respectively. Results: Table 2 summarizes the results. Urinary total protein content increased in vehicle-treated rats to about three times of the value in lean rats. This increase, however, was reduced to 1.2-1.5 times by the-treatment with compound 1. […] This increase, however, was reduced to 20-30 times by the treatment with compound 1. […] In non-insulin-dependent diabetic models, compound 1 is expected to be effective against diabetic nephropathy by decreasing the urinary protein without affecting the blood glucose level.

[3] = in vivo; details: both sexes, po
Method: Acute Toxicity Test Compound 1: (±)-1-(cyclohexyloxycarbonyloxy)ethyl 2-ethoxy-1-[[2′-(1H-tetrazole-5-yl)biphenyl-4-yl]methyl]-1H-benzimidazole-7-carboxylate The LD50 of compound 1 is 2,000 mg/kg or more for 4-week-old Jcl:ICR mice (males and females) and for 5-week-old Jcl:Wister rats (males and females) via single oral administration.

[4] = 2 weeks after the first dose, 1 mg/kg/day p.o., mean ± standard error
[5] = 4 weeks after the first dose, 1 mg/kg/day p.o., mean ± standard error
[6] = 6 weeks after the first dose, 1 mg/kg/day p.o., mean ± standard error
[7] = 8 weeks after the first dose, 1 mg/kg/day p.o., mean ± standard error
[8] = Preadministration (baseline), 5/6 nephrectomized rats, n = 9, mean ± standard error
[9] = age 11 weeks (start of treatment, baseline), Wistar fatty rats, n = 6, mean ± standard error
[10] = age 13 weeks, 1 mg/kg/day p.o., mean ± standard error
[11] = age 15 weeks, 1 mg/kg/day p.o., mean ± standard error
[12] = age 17 weeks, 1 mg/kg/day p.o., mean ± standard error
[13] = age 19 weeks, 1 mg/kg/day p.o., mean ± standard error
[14] = age 21 weeks, 1 mg/kg/day p.o., mean ± standard error

CCOc1nc2cccc(C(=O)OC(C)OC(=O)OC3CCCCC3)c2n1Cc1ccc(-c2ccccc2-c2nnn[nH]2)cc1 (racemic) [Compound 1, (±)-1-(cyclohexyloxycarbonyloxy)ethyl 2-ethoxy-1-[[2′-(1H-tetrazole-5-yl)biphenyl-4-yl]methyl]-1H-benzimidazole-7-carboxylate]
Urinary albumin [1, 4]: 6.3 ± 2.9 mg/100 g/24 hr
Urinary total protein [1, 4]: 30.9 ± 5.2 mg/100 g/24 hr
Urinary albumin [1, 5]: 6.8 ± 3.4 mg/100 g/24 hr
Urinary total protein [1, 5]: 27.7 ± 4.0 mg/100 g/24 hr
Urinary total protein and albumin (course versus vehicle-treated rats) ([1]; 5/6 nephrectomized rats, 1 mg/kg/day p.o. for eight weeks): these parameters did not increase
Urinary albumin [1, 6]: 7.4 ± 4.0 mg/100 g/24 hr
Urinary total protein [1, 6]: 17.6 ± 5.6 mg/100 g/24 hr
Urinary albumin [1, 7]: 5.6 ± 2.7 mg/100 g/24 hr
Urinary total protein [1, 7]: 24.4 ± 2.7 mg/100 g/24 hr
Urinary albumin [1, 8]: 7.3 ± 2.3 mg/100 g/24 hr
Urinary total protein [1, 8]: 32.8 ± 5.4 mg/100 g/24 hr
Effect on blood glucose level ([2]; Wistar fatty rats, 1 mg/kg/day p.o.): did not affect blood glucose level
Urinary albumin content relative to the value in lean rats ([2]; Wistar fatty rats, 1 mg/kg/day p.o., vehicle-treated about 100 times): 20-30 times
Urinary total protein content relative to the value in lean rats ([2]; Wistar fatty rats, 1 mg/kg/day p.o., vehicle-treated about three times): 1.2-1.5 times
Urinary albumin [2, 9]: 6.5 ± 0.4 mg/24 hr
Urinary total protein [2, 9]: 101 ± 6 mg/24 hr
Urinary albumin [2, 10]: 11.2 ± 3.9 mg/24 hr
Urinary total protein [2, 10]: 69 ± 11 mg/24 hr
Urinary albumin [2, 11]: 14.8 ± 6.1 mg/24 hr
Urinary total protein [2, 11]: 91 ± 12 mg/24 hr
Urinary albumin [2, 12]: 21.8 ± 8.2 mg/24 hr
Urinary total protein [2, 12]: 97 ± 11 mg/24 hr
Urinary albumin [2, 13]: 10.7 ± 3.9 mg/24 hr
Urinary total protein [2, 13]: 79 ± 10 mg/24 hr
Urinary albumin [2, 14]: 15.4 ± 3.7 mg/24 hr
Urinary total protein [2, 14]: 74 ± 13 mg/24 hr
LD50 ([3]; Jcl:ICR, mouse): ≥ 2000 mg/kg
LD50 ([3]; Jcl:Wister, rat): ≥ 2000 mg/kg
